This passage reports Ki results from US8044047B2, “5-substituted benzoxazines” (Hoffman-La Roche Inc., priority 2008, dated 2011).

The experiment has as its target T1, recombinant human 5-HT5A receptor (Homo sapiens, UniProt P47898).
T1 construct: expressed in transfected cells; host or cells: HEK-EBNA (Human Embryonic Kidney-EBNA) cells, transient cDNA expression; membranes
In words: [3H]LSD radioligand binding assay, membranes of HEK-EBNA cells transiently expressing 5-HT5A receptors. To be noted: [3H]LSD approx. 1 nM, SPA beads, 120 min at room temperature; Ki from IC50 by the Cheng-Prussoff equation. The procedure: A [^3H]LSD radioligand binding assay was used to determine the affinity of the compounds for the recombinant human 5-HT5A receptor, in membranes from transiently (cDNA) expressed 5-HT5A receptors in Human Embryonic Kidney-EBNA (HEK-EBNA) cells. Assay buffer consisted of Tris (50 mM) buffer containing 1 mM EGTA, 10 mM MgCl2 (pH 7.4) and 10 μM pargyline. The binding assay was carried out in 96-well-plates in the presence of [^3H]LSD (approximately 1 nM), approximately 2 μg/well of membrane protein, and 0.5 mg of Ysi-poly-1-lysine SPA beads in a final volume of 200 μl of buffer. Non-specific binding was defined using methiothepin 2 μM. Compounds were tested at 10 concentrations. All assays were conducted in duplicate and repeated at least two times. Assay plates were incubated for 120 min at room temperature before centrifugation. Bound ligand was determined using a Packard Topcount scintillation counter. IC50 values were calculated using a non-linear curve fitting program and Ki values calculated using the Cheng-Prussoff equation.

T1 sequence (P47898 whole entry): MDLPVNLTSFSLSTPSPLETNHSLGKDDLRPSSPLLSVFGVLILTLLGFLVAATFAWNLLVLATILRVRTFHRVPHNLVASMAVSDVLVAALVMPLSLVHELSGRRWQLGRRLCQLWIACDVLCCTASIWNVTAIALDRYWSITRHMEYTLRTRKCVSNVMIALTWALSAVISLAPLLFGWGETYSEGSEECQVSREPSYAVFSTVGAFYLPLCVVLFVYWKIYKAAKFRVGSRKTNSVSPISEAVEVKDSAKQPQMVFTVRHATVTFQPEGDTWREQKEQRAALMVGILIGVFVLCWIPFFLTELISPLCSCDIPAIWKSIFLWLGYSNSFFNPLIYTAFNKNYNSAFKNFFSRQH

As a reminder, the Ki is a measure of affinity in units of concentration, obtained from inhibition or displacement. Regarding `Clc1cccc2c1COC(N[C@@H]1CCc3ccccc31)=N2` [Example 1, (5-Chloro-4H-benzo[d][1,3]oxazin-2-yl)-(R)-indan-1-yl-amine], the Ki is 57 nM. With `O=[N+]([O-])c1cccc2c1COC(N[C@@H]1CCc3ccccc31)=N2` [Example 2, (R)-Indan-1-yl-(5-nitro-4H-benzo[d][1,3]oxazin-2-yl)-amine], the Ki amounted to 169 nM. The same measure for `Nc1cccc2c1COC(N[C@@H]1CCc3ccccc31)=N2` [Example 3, (R)—N^2-Indan-1-yl-4H-benzo[d][1,3]oxazine-2,5-diamine]: 3 nM; for `COc1cccc2c1C(NC1=Nc3cccc(N)c3CO1)CO2` (stereo not drawn) [Example 4, N^2-(4-Methoxy-2,3-dihydro-benzofuran-3-yl)-4H-benzo[d][1,3]oxazine-2,5-diamine]: 27 nM. The same measure for `O=C(Cc1ccc(Cl)cc1)Nc1cccc2c1COC(N[C@@H]1CCc3ccccc31)=N2` [Example 5, 2-(4-Chloro-phenyl)-N-[2-((R)-indan-1-ylamino)-4H-benzo[d][1,3]oxazin-5-yl]-acetamide]: 131 nM. As to `O=S(=O)(Nc1cccc2c1COC(N[C@@H]1CCc3ccccc31)=N2)c1cc(F)cc(F)c1` [Example 6, 3,5-Difluoro-N-[2-((R)-indan-1-ylamino)-4H-benzo[d][1,3]oxazin-5-yl]-benzenesulfonamide], the Ki was 2 nM. `COc1cccc2c1C(NC1=Nc3cccc(NS(=O)(=O)c4cc(F)cc(F)c4)c3CO1)CO2` (stereo not drawn) [Example 7, 3,5-Difluoro-N-[2-(4-methoxy-2,3-dihydro-benzofuran-3-ylamino)-4H-benzo[d][1,3]oxazin-5-yl]-benzenesulfonamide]: the Ki stood at 10 nM. On to `O=S(=O)(Nc1cccc2c1COC(N[C@@H]1CCc3ccccc31)=N2)C1CC1` [Example 8, Cyclopropanesulfonic acid [2-((R)-indan-1-ylamino)-4H-benzo[d][1,3]oxazin-5-yl]-amide], for which the Ki was found to be 2 nM. As for `Brc1cccc2c1COC(N[C@@H]1CCc3ccccc31)=N2` [Example 9, (5-Bromo-4H-benzo[d][1,3]oxazin-2-yl)-(R)-indan-1-yl-amine], the Ki came to 106 nM. The same measure for `CS(=O)(=O)Nc1cccc2c1COC(N[C@@H]1CCc3ccccc31)=N2` [Example 10, N-[2-((R)-Indan-1-ylamino)-4H-benzo[d][1,3]oxazin-5-yl]-methanesulfonamide]: 5 nM; for `N#Cc1cccc2c1COC(N[C@@H]1CCc3ccccc31)=N2` [Example 11, 2-((R)-Indan-1-ylamino)-4H-benzo[d][1,3]oxazine-5-carbonitrile]: 118 nM; for `c1ccc2c(c1)CC[C@H]2NC1=Nc2cccc(C3CC3)c2CO1` [Example 12, (5-Cyclopropyl-4H-benzo[d][1,3]oxazin-2-yl)-(R)-indan-1-yl-amine]: 13 nM.

As to `Fc1ccc(-c2cccc3c2COC(N[C@@H]2CCc4ccccc42)=N3)cc1` [Example 13, [5-(4-Fluoro-phenyl)-4H-benzo[d][1,3]oxazin-2-yl]-(R)-indan-1-yl-amine], the Ki stood at 78 nM.

Take `Fc1ccc(Nc2cccc3c2COC(N[C@@H]2CCc4ccccc42)=N3)cc1` [Example 14, N^5-(4-Fluoro-phenyl)-N^2—(R)-indan-1-yl-4H-benzo[d][1,3]oxazine-2,5-diamine]: the Ki came out at 3 nM. With `Clc1ccc(Nc2cccc3c2COC(N[C@@H]2CCc4ccccc42)=N3)cc1` [Example 15, N^5-(4-Chloro-phenyl)-N^2—(R)-indan-1-yl-4H-benzo[d][1,3]oxazine-2,5-diamine], the Ki turned out to be 2 nM.
